Tested on: actinic keratoses
Experiment: Randomized, blinded patient study of topical picropodophyllin solution for actinic keratoses (lesion count in treatment area)
Assay type: in vivo, patients
Conditions: topical twice daily for 1 week
Description: To date, 56 patients have been studied to determine the efficacy of picropodophyllin in treating actinic keratoses. The patients were randomized into four groups, and the patients in each group were treated with a solution containing either 0.5%, 1.25%, or 2.0% picropodophyllin (w/v) in propylene glycol, or a placebo constituting only the vehicle propylene glycol. The picropodophyllin solution was prepared in 100% propylene glycol solution. The solutions were prepared aseptically following GMP protocols. The affected areas of the body variously included the scalp, face, arms, and legs. Without knowing which one of the four solutions they were applying, the subjects self-applied one of the solutions to the skin. After initial application, the subjects gently massaged the solutions into their skin. This was done twice daily for 1 week. Lesions (actinic keratosis) were palpated and visualized by a trained lesion counter who is a board certified dermatologist. The same investigator evaluated each subject at each visit for consistency. The subjects were evaluated at baseline, day 3, day 7, day 14, day 28, day 56 and day 90. Within the treatment area, the number of lesions were counted, regardless of their size. The change in the number of lesions (% decline from baseline) within the treatment area was calculated and the results are shown in the table below: […]

COc1cc([C@@H]2c3cc4c(cc3[C@H](O)[C@H]3COC(=O)[C@@H]23)OCO4)cc(OC)c1OC [PPP, picropodophyllin]
% Decline from Baseline (number of lesions in treatment area) (0.50% PPP w/v in propylene glycol, 28 days): −56^AB % | % Decline from Baseline (number of lesions in treatment area) (0.50% PPP w/v in propylene glycol, 56 days): −82^AB % | % Decline from Baseline (number of lesions in treatment area) (0.50% PPP w/v in propylene glycol, 90 days): −90^AB % | % Decline from Baseline (number of lesions in treatment area) (1.25% PPP w/v in propylene glycol, 28 days): −53^AB % | % Decline from Baseline (number of lesions in treatment area) (1.25% PPP w/v in propylene glycol, 56 days): −73^AB % | % Decline from Baseline (number of lesions in treatment area) (1.25% PPP w/v in propylene glycol, 90 days): −65^AB % | % Decline from Baseline (number of lesions in treatment area) (2.00% PPP w/v in propylene glycol, 28 days): −17% | % Decline from Baseline (number of lesions in treatment area) (2.00% PPP w/v in propylene glycol, 56 days): −55^AB % | % Decline from Baseline (number of lesions in treatment area) (2.00% PPP w/v in propylene glycol, 90 days): −84^AB %

Reference: patent publication US9907783B2, “Methods of treating skin conditions using cyclolignan compounds” (m. Alphabet 2, L.L.C., priority 2013, dated 2018)
